# The supplement of paper PMC10307832
# Tests used:
# Assay in all cases: relative viability (nuclei count vs DMSO), 5 days (fraction); higher = more cells survive
# BAY61-3606 + Palbociclib = compound: COC1=C(C=C(C=C1)C2=CC3=NC=CN3C(=N2)NC4=C(C=CC=N4)C(=O)N)OC [BAY61-3606] + CC(=O)c1c(C)c2cnc(Nc3ccc(N4CCNCC4)cn3)nc2n(C2CCCC2)c1=O [Palbociclib] (partner 0.5 µM)
# Procedure, shortened: (§1)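 Values are medians from duplicate plates. Each reflects relative viability, defined as the nuclei count of treated wells over that of vehicle wells. Lung cancer cell lines in 1536-well plates were pin-tool dosed one day after seeding with one drug alone or with a fixed anchor-drug dose plus five library-drug doses (not always all listed) in √10 steps, then fixed, stained and imaged at 4× after 5 days.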
# BAY61-3606 + Trametinib = compound: COC1=C(C=C(C=C1)C2=CC3=NC=CN3C(=N2)NC4=C(C=CC=N4)C(=O)N)OC [BAY61-3606] + CC(=O)Nc1cccc(-n2c(=O)n(C3CC3)c(=O)c3c(Nc4ccc(I)cc4F)n(C)c(=O)c(C)c32)c1 [Trametinib] (partner 0.02 µM)
# Procedure, shortened: as §1
# BAY61-3606 + Linsitinib = compound: COC1=C(C=C(C=C1)C2=CC3=NC=CN3C(=N2)NC4=C(C=CC=N4)C(=O)N)OC [BAY61-3606] + C[C@]1(O)C[C@@H](c2nc(-c3ccc4ccc(-c5ccccc5)nc4c3)c3c(N)nccn32)C1 [Linsitinib] (partner 1 µM)
# Procedure, shortened: as §1
# BAY61-3606 + Navitoclax = compound: COC1=C(C=C(C=C1)C2=CC3=NC=CN3C(=N2)NC4=C(C=CC=N4)C(=O)N)OC [BAY61-3606] + CC1(C)CCC(c2ccc(Cl)cc2)=C(CN2CCN(c3ccc(C(=O)NS(=O)(=O)c4ccc(N[C@H](CCN5CCOCC5)CSc5ccccc5)c(S(=O)(=O)C(F)(F)F)c4)cc3)CC2)C1 [Navitoclax] (partner 0.5 µM)
# Procedure, shortened: as §1
Cell Line,relative viability (BAY61-3606 + Palbociclib; first compound 0.02 µM),relative viability (BAY61-3606 + Palbociclib; first compound 0.06325 µM),relative viability (BAY61-3606 + Palbociclib; first compound 0.2 µM),relative viability (BAY61-3606 + Palbociclib; first compound 0.6325 µM),relative viability (BAY61-3606 + Palbociclib; first compound 2 µM),relative viability (BAY61-3606 + Trametinib; first compound 0.02 µM),relative viability (BAY61-3606 + Trametinib; first compound 0.06325 µM),relative viability (BAY61-3606 + Trametinib; first compound 0.2 µM),relative viability (BAY61-3606 + Trametinib; first compound 0.6325 µM),relative viability (BAY61-3606 + Trametinib; first compound 2 µM),relative viability (BAY61-3606 + Linsitinib; first compound 0.02 µM),relative viability (BAY61-3606 + Linsitinib; first compound 0.06325 µM),relative viability (BAY61-3606 + Linsitinib; first compound 0.2 µM),relative viability (BAY61-3606 + Linsitinib; first compound 0.6325 µM),relative viability (BAY61-3606 + Linsitinib; first compound 2 µM),relative viability (BAY61-3606 + Navitoclax; first compound 0.02 µM),relative viability (BAY61-3606 + Navitoclax; first compound 0.06325 µM),relative viability (BAY61-3606 + Navitoclax; first compound 0.2 µM),relative viability (BAY61-3606 + Navitoclax; first compound 0.6325 µM),relative viability (BAY61-3606 + Navitoclax; first compound 2 µM)
NCI-H1734,0.361,0.327,0.367,0.351,0.214,0.708,0.667,0.636,0.671,0.568,0.827,0.853,0.849,0.866,0.607,0.904,0.727,0.786,0.829,0.529
NCI-H1563,,,,,,,,,,,1.37,1.42,1.2,1.12,1.03,,,,,
NCI-H441,0.249,0.264,0.256,0.231,0.192,0.491,0.417,0.363,0.483,0.371,0.646,0.628,0.626,0.535,0.38,0.84,0.515,0.66,0.82,0.262
H3255,0.3,0.307,0.301,0.334,0.307,0.688,0.538,0.598,0.715,0.587,0.989,0.987,1.07,1.18,0.854,0.555,0.54,0.502,0.494,0.609
Calu-6,,,,,,,,,,,0.977,1.02,0.893,0.901,0.759,0.84,0.981,0.799,0.788,0.607
NCI-H1915,0.54,0.565,0.537,0.551,0.375,0.35,0.29,0.325,0.315,0.246,1.1,1.06,1.05,1.06,0.854,0.775,0.779,0.715,0.755,0.765
NCI-H1793,0.27,0.283,0.337,0.335,0.474,0.445,0.414,0.449,0.437,0.478,0.797,0.892,1,1.27,0.89,0.547,0.578,0.471,0.459,0.249
NCI-H1651,0.558,0.511,0.513,0.573,0.523,0.929,0.809,0.833,0.844,0.762,0.908,0.909,0.91,1.12,0.823,1.21,1.09,0.964,1.17,0.909
EBC-1,,,,,,,,,,,1.02,0.91,0.835,0.949,0.628,0.421,0.362,0.525,0.504,0.281
NCI-H1648,0.251,0.259,0.265,,0.276,0.47,0.466,0.546,,0.512,,,,,,,,,,
NCI-H522,0.938,0.823,1.23,0.982,0.704,0.607,0.723,0.818,0.764,0.688,,,,,,,,,,
NCI-H1650,0.316,0.291,0.37,0.413,0.298,0.661,0.514,0.595,0.569,0.29,,,,,,1.21,1.19,1.16,1.27,0.751
IA-LM,,,,,,,,,,,0.52,0.573,0.559,0.662,0.354,0.812,,0.827,0.793,0.725
NCI-H596,,,,,,0.879,0.793,0.701,1.01,0.696,1.16,0.962,1,1.02,0.954,0.942,1.04,1.09,1.13,0.712
NCI-H2342,0.469,0.48,0.517,0.602,0.63,0.899,0.912,0.855,0.712,0.953,,,,,,,,,,
NCI-H1299,,,,,,,,,,,0.977,1.03,0.994,1,0.89,1.05,1.06,1.05,1.07,1.05
NCI-H650,0.34,0.337,0.371,0.365,0.306,1.09,1.05,0.922,0.93,0.838,1.12,0.934,0.781,1.02,0.596,,,,,
A549,,,,,,,,,,,0.765,0.63,0.642,0.77,0.588,1.24,1.14,1.33,1.22,0.916
NCI-H2170,0.338,0.404,0.425,0.412,0.306,0.859,0.879,0.907,0.916,0.762,,,,,,0.618,0.607,0.572,0.517,0.259
SW 900,0.518,,,0.566,0.434,0.877,,,0.87,0.585,,,,,,,,,,
ChaGo-K-1,0.934,0.846,0.89,0.916,0.865,0.947,0.893,0.921,0.872,0.939,,,,,,1.18,0.822,0.946,0.666,0.983
NCI-H661,0.408,0.378,0.413,0.42,0.477,0.638,0.585,0.551,0.633,0.541,0.868,0.484,0.627,0.616,0.405,,,,,
ABC-1,0.39,0.576,0.705,0.796,0.716,,,,,,0.774,0.948,0.879,0.827,0.631,,,,,
NCI-H1703,,,,,,,,,,,0.596,0.389,0.842,0.808,0.341,1.47,0.859,0.954,1.08,0.475
